These results are taken from US20030083483A1, “Molecular interaction sites of vimentin RNA and methods of modulating the same” (priority 1999, published 2003).

Like-named read-outs stand apart in the source and are kept apart here.

The experiment deals with 27-mer model RNA sequence of the 16S A-site. Kind of experiment: MASS mass spectrometry binding assay with 16S A-site 27-mer RNA. Also noted: species or system prokaryotic. How it is done: The compounds are screened for binding affinity using MASS or conventional high-throughput functional screens. The best scoring compounds from docking a 256-member library against the 16S A-site ribosomal RNA structure are shown in the table 5 below. The MASS assay was performed with the 27-mer model RNA sequence of the 16S A-site whose NMR structure has been determined. The transcription/translation assay was based on expression of a luciferase plasmid.
A preferred first step of MASS screening involves mixing the RNA target (or targets) with a combinatorial library of ligands designed to bind to a specific site on the target molecule(s). Specific noncovalent complexes formed in solution between the target(s) and any library members are transferred into the gas phase and ionized by ESI. As described herein, from the measured mass difference between the complex and the free target, the identity of the binding ligand can be determined. The dissociation constant of the complex can be determined in two ways: if a ligand with a known binding affinity for the target is available, a relative Kd can be measured by using the known ligand as an internal control and measuring the abundance of the unknown complex to the abundance of the control, alternatively, if no internal control is available, Kd's can be determined by making a series of measurements at different ligand concentrations and deriving a Kd value from the “titration” curve.
In a direct determination of solution phase dissociation constants (Kd's) by mass spectrometry, ESI-MS measurements of a solution containing a fixed concentration of RNA at different concentrations of ligand were obtained. By measuring the ratio of bound:unbound RNA at varying ligand concentrations, the Kd was determined by 1/slope of the “titration curve”. The MS derived value of 110 nM is in good agreement with previously reported literature value of 200 nM.
All mass spectrometry experiments were performed using an Apex II 70e electrospray ionization Fourier transform ion cyclotron resonance mass spectrometer (Bruker Daltonics, Billerica) employing an actively shielded 7 tesla superconducting magnet. RNA solutions were prepared in 50 mM NH4OAc (pH 7), mixed 1:1 v:v with isopropanol to aid desolvation, and infused at a rate of […] using a syringe pump. Ions were formed in a modified electrospray source (Analytica, Branford) employing an off axis, grounded electrospray probe positioned ca. 1.5 cm from the metalized terminus of the glass desolvation capillary biased at 5000 V. A counter-current flow of dry […] gas heated to 225C was employed to assist in the desolvation process. Ions were accumulated in an external ion reservoir comprised of an RF-only hexapole, a skimmer cone, and an auxiliary electrode for 1000 ms prior to transfer into the trapped ion cell for mass analysis. Each spectrum was the result of the coaddition of 16 transients comprised of […] acquired over a 90,909 kHz bandwidth resulting in a 700 ms detection interval. All aspects of pulse sequence control, data acquisition, and post acquisition processing were performed using a Bruker Daltonics datastation running XMASS version 4.0 on a Silicon Graphics (San Jose, Calif.) R5000 computer.
Mass spectrometry experiments were performed in order to detect complex formation between a library containing five aminoglycosides (Sisomicin (Sis), Tobramycin (Tob), Bekanomycin (Bek), Paromomycin (PM), and Livodomycin (LV)) and two RNA targets simultaneously. Signals from the (M-5H+)^5− charge states of free 16S and 18S RNAs are detected at m/z 1801.515 and 1868.338, respectively. The mass spectrometric assay reproduces the known solution binding properties of aminoglycosides to the 16S A site model and an 18S A site model with a neutral mass linker. Consistent with the higher binding affinity of theses aminoglycosides for the 16S A-site relative to the 18S A-site, aminoglycoside complexes are observed only with the 16S rRNA target. […]

Turning to `NC[C@@H]1O[C@H](O[C@H]2[C@@H](O)[C@H](O[C@@H]3[C@@H](O)[C@H](N)C[C@H](N)[C@H]3O[C@H]3O[C@H](CO)[C@@H](O)[C@H](O)[C@H]3N)O[C@@H]2CO)[C@H](N)[C@@H](O)[C@@H]1O` [Paromomycin], the Kd (as a rule, the concentration at which binding is half-saturated) is, setting by setting: (16S A site 27mer, ESI-MS titration, read-out: KD measured by mass spectrometry) 0.11 µM; (27-mer model RNA of the 16S A-site, unit printed only in the Paromomycin cell and b169, read-out: MASS KD) 0.5 µM. The “complexes detected with the 16S A site 27mer RNA” value (ESI-FTICR, mixture of five aminoglycosides, 16S and 18S targets simultaneously) is on record as “High affinity complexes”.
